# According to ChEMBL document CHEMBL2203030, “Synthesis, characterization, antidepressant and antioxidant activity of novel piperamides bearing piperidine and piperazine analogues” (Bioorg Med Chem Lett, 2012):
# Columns and labels:
# Aspergillus flavus [1] = test: Antimicrobial activity against Aspergillus flavus NCIM 524 by broth dilution method; format: functional
# Staphylococcus aureus [2] = test: Antimicrobial activity against Staphylococcus aureus NCIM 5021 at 100 ug/mL incubated for 24 hrs by agar disc diffusion method; format: functional; conditions: NCIM 5021, 24 h, read-out: IZ
# Candida albicans [3] = test: Antimicrobial activity against Candida albicans NCIM 3471 by broth dilution method; format: functional
# Mus musculus [4] = test: Antidepressant activity in Swiss albino mouse assessed as mean immobility time measured during last 4 mins of single 6 mins test session at 20 mg/kg, po by forced swim test (reference value: 75.33 +/- 3.35 secs); format: functional
# Pseudomonas aeruginosa [5] = test: Antimicrobial activity against Pseudomonas aeruginosa NCIM 5029 at 100 ug/mL incubated for 24 hrs by agar disc diffusion method; format: functional; conditions: NCIM 5029, 24 h, read-out: IZ
# Candida albicans [6] = test: Antimicrobial activity against Candida albicans NCIM 3471 at 100 ug/mL incubated for 48 hrs by agar disc diffusion method; format: functional; conditions: NCIM 3471, 48 h, read-out: IZ
# Aspergillus flavus [7] = test: Antimicrobial activity against Aspergillus flavus NCIM 524 at 100 ug/mL incubated for 48 hrs by agar disc diffusion method; format: functional; conditions: NCIM 524, 48 h, read-out: IZ
# Mus musculus [8] = test: Antidepressant activity in Swiss albino mouse assessed as mean immobility time measured during 6 mins period at 20 mg/kg, po administered 30 mins before test by tail suspension test (reference value: 185.7 +/- 5.33 secs); format: functional
# Pseudomonas aeruginosa [9] = test: Antimicrobial activity against Pseudomonas aeruginosa NCIM 5029 by broth dilution method; format: functional
# [10] = test system: Radical scavenging activity; test: Antioxidant activity assessed as DPPH free radical scavenging activity by spectrophotometry; format: functional
# Bacillus subtilis [11] = test: Antimicrobial activity against Bacillus subtilis NCIM 2999 at 100 ug/mL incubated for 24 hrs by agar disc diffusion method; format: functional; conditions: NCIM 2999, 24 h, read-out: IZ
# Bacillus subtilis [12] = test: Antimicrobial activity against Bacillus subtilis NCIM 2999 by broth dilution method; format: functional
# [13] = Antioxidant activity assessed as superoxide scavenging activity using xanthine-xanthine oxidase system by NBT dye reduction based assay; format: functional
# Staphylococcus aureus [14] = test: Antimicrobial activity against Staphylococcus aureus NCIM 5021 by broth dilution method; format: functional
# Escherichia coli [15] = test: Antimicrobial activity against Escherichia coli NCIM 2574 by broth dilution method; format: functional
# Escherichia coli [16] = test: Antimicrobial activity against Escherichia coli NCIM 2574 at 100 ug/mL incubated for 24 hrs by agar disc diffusion method; format: functional; conditions: NCIM 2574, 24 h, read-out: IZ
# [17] = biological target: T1, Amine oxidase [flavin-containing] A (Mus musculus, UniProt Q64133); test: Inhibition of MAOA in mouse brain mitochondrial fraction assessed as enzyme activity per mg of protein using 5-HT substrate incubated for 20 mins by UV-spectrophotometry; format: tissue-based
# T1 sequence (Q64133 whole entry): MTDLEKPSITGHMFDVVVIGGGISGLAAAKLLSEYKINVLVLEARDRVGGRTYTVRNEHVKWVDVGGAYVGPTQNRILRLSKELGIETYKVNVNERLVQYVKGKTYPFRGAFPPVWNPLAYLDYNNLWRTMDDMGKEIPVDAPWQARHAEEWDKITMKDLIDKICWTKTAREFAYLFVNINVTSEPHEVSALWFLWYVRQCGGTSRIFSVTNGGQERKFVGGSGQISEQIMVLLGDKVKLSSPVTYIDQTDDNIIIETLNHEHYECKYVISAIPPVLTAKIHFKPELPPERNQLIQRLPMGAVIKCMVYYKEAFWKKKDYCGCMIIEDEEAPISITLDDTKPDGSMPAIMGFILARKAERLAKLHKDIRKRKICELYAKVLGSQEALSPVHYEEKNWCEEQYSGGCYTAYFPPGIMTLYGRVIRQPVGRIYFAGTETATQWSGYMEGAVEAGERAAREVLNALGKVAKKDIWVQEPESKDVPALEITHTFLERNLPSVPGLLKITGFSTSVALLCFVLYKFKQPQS
# [18] = biological target: T2, Amine oxidase [flavin-containing] B (Mus musculus, UniProt Q8BW75); test: Inhibition of MAOB in mouse brain mitochondrial fraction assessed as enzyme activity per mg of protein using beta-PEA substrate incubated for 20 mins by UV-spectrophotometry; format: tissue-based
# T2 sequence (Q8BW75 whole entry): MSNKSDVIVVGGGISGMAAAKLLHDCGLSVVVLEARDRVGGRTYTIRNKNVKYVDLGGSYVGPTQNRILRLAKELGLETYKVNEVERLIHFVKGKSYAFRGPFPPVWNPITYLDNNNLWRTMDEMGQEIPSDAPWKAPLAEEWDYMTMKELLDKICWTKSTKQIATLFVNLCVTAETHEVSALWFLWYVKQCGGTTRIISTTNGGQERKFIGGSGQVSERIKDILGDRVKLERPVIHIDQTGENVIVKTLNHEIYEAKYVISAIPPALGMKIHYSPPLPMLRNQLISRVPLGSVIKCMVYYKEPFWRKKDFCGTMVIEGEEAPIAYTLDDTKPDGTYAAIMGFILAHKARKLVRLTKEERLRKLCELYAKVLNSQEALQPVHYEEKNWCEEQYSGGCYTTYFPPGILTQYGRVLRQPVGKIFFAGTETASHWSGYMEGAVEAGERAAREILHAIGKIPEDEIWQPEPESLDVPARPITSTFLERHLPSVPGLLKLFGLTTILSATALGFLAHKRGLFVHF
Structure (SMILES),MIC (Aspergillus flavus [1]),MIC (Candida albicans [3]),MIC (Pseudomonas aeruginosa [9]),IC50 [10],MIC (Bacillus subtilis [12]),IC50 [13],MIC (Staphylococcus aureus [14]),MIC (Escherichia coli [15]),Activity [17],Activity [18],zone of inhibition at 100 µg/mL (Staphylococcus aureus [2]),Time (Mus musculus [4]),zone of inhibition at 100 µg/mL (Pseudomonas aeruginosa [5]),zone of inhibition at 100 µg/mL (Candida albicans [6]),zone of inhibition at 100 µg/mL (Aspergillus flavus [7]),Time (Mus musculus [8]),zone of inhibition at 100 µg/mL (Bacillus subtilis [11]),zone of inhibition at 100 µg/mL (Escherichia coli [16])
O=C1O[C@H]([C@@H](O)CO)C(O)=C1O [ASCORBIC ACID],,,,12.6 µg/mL,,,,,,,,,,,,,,
COc1cc(/C=C/C(=O)N2CCCC(O)C2)cc2c1OCO2 (stereo unspecified),> 100 µg/mL,100 µg/mL,> 100 µg/mL,13.4 µg/mL,62 µg/mL,16.9 µg/mL,50 µg/mL,> 100 µg/mL,16.63 nmol,17.33 nmol,8 mm,35.4 s,12 mm,18 mm,10 mm,84.2 s,11 mm,7 mm
COc1cc(/C=C/C(=O)N2CCC(O)CC2)cc2c1OCO2,90 µg/mL,100 µg/mL,> 100 µg/mL,8.3 µg/mL,50 µg/mL,12.8 µg/mL,50 µg/mL,> 100 µg/mL,14.46 nmol,15.72 nmol,10 mm,30.8 s,11 mm,14 mm,10.2 mm,76.18 s,7 mm,11 mm

# More lines, main results first:
MIC (Aspergillus flavus [1]),MIC (Candida albicans [3]),MIC (Pseudomonas aeruginosa [9]),IC50 [10],MIC (Bacillus subtilis [12]),IC50 [13],MIC (Staphylococcus aureus [14]),MIC (Escherichia coli [15]),Activity [17],Activity [18],Structure (SMILES),zone of inhibition at 100 µg/mL (Staphylococcus aureus [2]),Time (Mus musculus [4]),zone of inhibition at 100 µg/mL (Pseudomonas aeruginosa [5]),zone of inhibition at 100 µg/mL (Candida albicans [6]),zone of inhibition at 100 µg/mL (Aspergillus flavus [7]),Time (Mus musculus [8]),zone of inhibition at 100 µg/mL (Bacillus subtilis [11]),zone of inhibition at 100 µg/mL (Escherichia coli [16])
15 µg/mL,25 µg/mL,25 µg/mL,20.1 µg/mL,50 µg/mL,38.4 µg/mL,30 µg/mL,20 µg/mL,,,COc1cc(/C=C/C(=O)N2CCNCC2)cc2c1OCO2,14 mm,71 s,13 mm,10 mm,14 mm,178 s,10 mm,11 mm
25 µg/mL,25 µg/mL,30 µg/mL,13.8 µg/mL,30 µg/mL,15.8 µg/mL,28 µg/mL,50 µg/mL,,,COc1cc(/C=C/C(=O)N2C(C)CCCC2C)cc2c1OCO2 (stereo unspecified),11 mm,43.33 s,11 mm,12 mm,15 mm,77.33 s,12 mm,10 mm
23 µg/mL,17 µg/mL,20 µg/mL,14.7 µg/mL,15 µg/mL,19.4 µg/mL,16.4 µg/mL,20 µg/mL,,,COc1ccccc1N1CCN(C(=O)/C=C/c2cc(OC)c3c(c2)OCO3)CC1,14 mm,59.16 s,11 mm,14.1 mm,13.6 mm,124.2 s,16 mm,9 mm
22 µg/mL,15 µg/mL,18.7 µg/mL,23.2 µg/mL,14 µg/mL,21.9 µg/mL,14 µg/mL,18 µg/mL,,,COc1cc(/C=C/C(=O)N2CCN(C(C)=O)CC2)cc2c1OCO2,11 mm,55.83 s,14 mm,11 mm,10.4 mm,116.2 s,16 mm,12 mm
